How the values were obtained:
in vitro = details: both, microsomes, pH 7.4
Description: Human and Rat Liver Microsomal Stability Assay
The metabolic stability of the compounds of the Formula (I) was measured by determination of the rate of compound disappearance when incubated in the presence of both human and rat liver microsomes. Liver microsomes are prepared from the endoplasmic reticulum of hepatocytes and are the primary source of the most important enzymes (cytochrome P450) involved in drug metabolism. Study of drug stability in the presence of liver microsomes is accepted as a valuable model permitting rapid prediction of in vivo drug stability.
Human and rat liver microsomes were obtained from a commercial source. Test compounds (3 μM) were incubated with pooled liver microsomes (male and female). Samples were incubated for a 45 minute period and removed at 5 time points and test compounds were analysed by LC-MS/MS.
The final incubation volume was 25 μL. A control incubation was included for each compound tested, where 0.1 M phosphate buffer pH 7.4 was added instead of NADPH. The control compounds testosterone and 7-hydroxycoumarin were included in each experiment and all incubations were performed singularly for each compound.
Each compound was incubated for 0, 5, 15, 30, and 45 minutes. The control (minus NADPH) was incubated for 45 minutes only. The reactions were stopped by the addition of 50 μL methanol containing internal standard at the appropriate time points. The incubation plates were centrifuged at 2500 rpm for 20 minutes at 4° C. to precipitate the protein.
Following protein precipitation, the sample supernatants were combined in cassettes of up to 4 compounds and analysed using standard LC-MS/MS conditions.
From a plot of the natural logarithm of the peak area ratio (i.e., the ratio of compound peak area:internal standard peak area) against time, the gradient of the line was determined. Subsequently, half-life and intrinsic clearance were calculated using the equations below: Eliminated Rate Constant (k)=(−Gradient).

[1] = target: T1, CB1 receptor (HEK293 CB1 β-arrestin cells) (Homo sapiens, UniProt P21554); assay: PathHunter β-Arrestin assay, enhancement of anandamide stimulation; type: cell-based; details: maximum % increase in stimulation caused by anandamide; for Potency % Enhancement 1000 nM: 1000 nM test compound; for Potency % Enhancement 300 nM: 300 nM test compound; for Potency % Enhancement 100 nM: 100 nM test compound
T1 construct: host or cells: HEK293 CB1 β-arrestin cells (PathHunter)
Source text: PathHunter™ β-Arrestin Assays
β-Arrestins are multifunctional intracellular proteins that interact with a structurally diverse group of cell surface receptors including GPCRs, to regulate cellular functions (see, e.g., Violin and Lefkowitz, 2007).
PathHunter™ enzyme fragment complementation is the most important method to measure β-arrestin recruitment. PathHunter™ β-Arrestin assays developed by DiscoveRX are revolutionary high-throughput screening assays for monitoring GPCR activation following ligand stimulation, without an imaging instrument, fluorescent protein tag, or radioactivity.
Instead, the assays detect GPCR activation through binding of β-arrestin to the expressed GPCR of interest, and measure the interaction of the two proteins using enzyme fragment complementation (EFC). The EFC approach offers a range of benefits for screening; including signal amplification and robust performance.
The larger portion of β-gal, termed EA for enzyme acceptor, is fused to the C-terminus of β-arrestin. The smaller, complementing fragment of β-gal, the ProLink™ tag, is expressed as a fusion protein with the GPCR of interest at the C-terminus. Upon activation, the GPCR is bound by β-arrestin. The interaction of β-arrestin and the GPCR forces the interaction of ProLink and EA, thus allowing complementation of the two fragments of β-gal and the formation of a functional enzyme capable of hydrolyzing substrate and generating a […] signal.
Using the PathHunter™ CB1 kit from DiscoveRX, a cannabinoid CB1 receptor agonist is added and activates the receptor, EA, which is fused to the C-terminus of β-arrestin, and then interacts with the ProLink™ tag which is fused to the CB1 receptor. This will result in the […] signal that is recorded by a luminescence plate reader. The […] signal is directly related to the activation of the receptor, therefore a higher concentration of agonist will yield a larger […] signal. The cannabinoid agonist is added in increasing concentrations to obtain an agonist dose response curve. With pre-incubation of a potential allosteric modulator, either an enhancement of agonist signalling with an allosteric enhancer or a decrease in the maximal response of the agonist with an allosteric inhibitor is expected.
All raw data are obtained as luminescence (relative light units), and are normalised and presented as a percentage of the maximal response for the endogenous cannabinoid CB1 receptor agonist anandamide (N-arachidonoylethanolamine).
The PathHunter™ β-Arrestin assay (from DiscoveRX, Fremont, USA) was performed as follows. HEK293 CB1 β-arrestin cells were plated 48 hours before use and incubated at 37° C., 5% CO2 in a humidified incubator. Test compounds were dissolved in dimethylsulfoxide (DMSO) and diluted in optimized cell culture media (OCC, as supplied by DiscoveRX) media to the required concentrations. 5 μL of test compound or vehicle solution was added to each well and incubated for 60 minutes at 37° C., 5% CO2 in a humidified incubator. 5 μL of increasing concentrations of anandamide was added to each well followed by a 90 minute incubation at 37° C., 5% CO2 in a humidified incubator. 55 μL of detection reagent (as supplied by DiscoveRX) was then added, followed by a further 90 minute incubation at room temperature in the dark. Chemiluminescence, reported in relative light units (RLU—a dimensionless value, standardised as a % of maximum stimulation with anandamide), was measured on a standard luminescence plate reader.
Data were plotted as % of maximal stimulation (Emax) caused by agonist versus the logarithm of concentration of agonist, in the presence or absence of a fixed concentration of test compound (modulator) or vehicle. For example, stimulation in the presence of agonist alone will give a value for stimulation expressed in RLU, which can be expressed as a range from 0% (at lowest agonist concentration, e.g., 1 nM) to 100% (at the highest agonist concentration, e.g., 10 μM). […]

CB1 receptor [2] = target: T2, CB1 receptor (Mus musculus, UniProt P47746); details: equilibrium binding assay; cited from earlier work
CB1 receptor [3] = target: T2, CB1 receptor; parameters: from the CB1 receptor in mouse brain membranes; host or cells: mouse brain membranes; details: mouse brain membranes; cited from earlier work
CCI model = details: antagonized by rimonabant; cited from earlier work
[4] = test system: C57BL/6J mice; FAAH knockout mice; details: cited from earlier work

T2 sequence (P47746 whole entry): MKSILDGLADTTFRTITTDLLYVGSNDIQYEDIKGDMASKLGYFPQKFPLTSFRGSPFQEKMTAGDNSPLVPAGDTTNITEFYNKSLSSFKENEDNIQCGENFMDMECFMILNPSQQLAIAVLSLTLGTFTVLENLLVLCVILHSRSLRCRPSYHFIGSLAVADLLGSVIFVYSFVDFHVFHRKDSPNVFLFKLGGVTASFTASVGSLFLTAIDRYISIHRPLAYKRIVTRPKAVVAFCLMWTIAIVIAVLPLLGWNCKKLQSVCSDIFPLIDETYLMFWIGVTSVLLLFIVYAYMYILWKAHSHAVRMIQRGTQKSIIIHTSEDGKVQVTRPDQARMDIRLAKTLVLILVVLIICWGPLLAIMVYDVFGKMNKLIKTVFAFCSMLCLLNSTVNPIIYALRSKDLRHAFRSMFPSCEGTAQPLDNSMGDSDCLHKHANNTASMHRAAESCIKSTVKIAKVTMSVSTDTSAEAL
T1 sequence (P21554 whole entry): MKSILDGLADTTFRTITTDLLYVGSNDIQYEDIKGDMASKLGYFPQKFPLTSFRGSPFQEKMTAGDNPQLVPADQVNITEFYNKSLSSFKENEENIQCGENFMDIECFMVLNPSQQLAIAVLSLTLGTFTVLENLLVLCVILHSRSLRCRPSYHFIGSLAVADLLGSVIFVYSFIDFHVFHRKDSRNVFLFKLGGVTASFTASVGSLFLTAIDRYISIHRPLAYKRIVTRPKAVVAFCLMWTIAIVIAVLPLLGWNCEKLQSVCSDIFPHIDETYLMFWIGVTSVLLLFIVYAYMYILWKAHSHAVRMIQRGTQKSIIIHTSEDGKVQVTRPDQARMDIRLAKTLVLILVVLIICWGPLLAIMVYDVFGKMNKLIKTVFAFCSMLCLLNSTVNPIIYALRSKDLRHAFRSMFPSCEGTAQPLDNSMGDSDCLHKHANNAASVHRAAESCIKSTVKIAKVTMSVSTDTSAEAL

With `Cc1ccc2c(C(C[N+](=O)[O-])c3ccccc3)c(-c3ccccc3)[nH]c2c1` (stereo not drawn) [ABD999] the half-life at 3 μM (in vitro; human) was 47.7 min, the microsomal CLint at 3 μM (in vitro; human) was 29.1 µL/min/mg and the “Potency % Enhancement 1000 nM” value [1] was 76.8%.
With `O=C(O)CC(c1ccccc1)c1c(-c2ccccc2)[nH]c2ccc(Cl)cc12` (stereo not drawn) [ABD1003] the “Potency % Enhancement 1000 nM” value [1] was 0%.
For `CS(=O)(=O)NCC(c1ccccc1)c1c(-c2ccccc2)[nH]c2ccccc12` (stereo not drawn) [ABD1009], the “Potency % Enhancement 1000 nM” value [1] was 0%.
In the case of `NCC(c1ccccc1)c1c(-c2ccccc2)[nH]c2ccccc12` (stereo not drawn) [ABD1009a], the “Potency % Enhancement 1000 nM” value [1] is reported as 0%.
For `NC(=O)NCC(c1ccccc1)c1c(-c2ccccc2)[nH]c2ccccc12` (stereo not drawn) [ABD1011], the “Potency % Enhancement 1000 nM” value [1] was 0%.
In the case of `c1ccc(-c2[nH]c3ccccc3c2-n2nnnc2-c2ccccc2)cc1` [ABD1077], the “Potency % Enhancement 1000 nM” value [1] is reported as 0%.
In the case of `c1ccc(-c2[nH]c3ccccc3c2-c2nnnn2-c2ccccc2)cc1` [ABD1078], the “Potency % Enhancement 1000 nM” value [1] is reported as 0%.
For `CS(=O)(=O)NC(c1ccccc1)c1c(-c2ccccc2)[nH]c2ccccc12` (stereo not drawn) [ABD1097], the “Potency % Enhancement 1000 nM” value [1] was 0%.
In the case of `O=S(=O)(NC(c1ccccc1)c1c(-c2ccccc2)[nH]c2ccccc12)c1ccccc1` (stereo not drawn) [ABD1098], the “Potency % Enhancement 1000 nM” value [1] is reported as 0%.
In the case of `N#CC(C#N)C(c1ccccc1)c1c(-c2ccccc2)[nH]c2ccccc12` (stereo not drawn) [ABD1100, 2-(Phenyl(2-phenyl-1H-indol-3-yl)methyl)malononitrile], the “Potency % Enhancement 300 nM” value [1] is reported as 0% and the “Potency % Enhancement 1000 nM” value [1] is reported as 19.6%.
In the case of `O=C(O)CC(c1ccccc1)c1c(-c2ccccc2)[nH]c2ccccc12` (stereo not drawn) [ABD1101a], the “Potency % Enhancement 1000 nM” value [1] is reported as 0%.
In the case of `N#CCC(c1ccccc1)c1c(-c2ccccc2)[nH]c2ccccc12` (stereo not drawn) [ABD1102, 3-Phenyl-3-(2-phenyl-1H-indol-3-yl)propanenitrile], the “Potency % Enhancement 300 nM” value [1] is reported as 0% and the “Potency % Enhancement 1000 nM” value [1] is reported as 21.9%.
In the case of `NC(=O)CC(c1ccccc1)c1c(-c2ccccc2)[nH]c2ccccc12` (stereo not drawn) [ABD1105], the “Potency % Enhancement 1000 nM” value [1] is reported as 0%.
For `CNC(=O)CC(c1ccccc1)c1c(-c2ccccc2)[nH]c2ccccc12` (stereo not drawn) [ABD1106], the “Potency % Enhancement 1000 nM” value [1] was 0%.
With `c1ccc(-c2[nH]c3ccccc3c2C(Cn2ccnn2)c2ccccc2)cc1` (stereo not drawn) [ABD1117] the “Potency % Enhancement 1000 nM” value [1] was 0%.
For `NNC(=O)CC(c1ccccc1)c1c(-c2ccccc2)[nH]c2ccccc12` (stereo not drawn) [ABD1131], the “Potency % Enhancement 1000 nM” value [1] was 0%.
For `Cc1ccc2c(C(CC#N)c3ccccc3)c(-c3ccccc3)[nH]c2c1` (stereo not drawn) [ABD1132, 3-(6-Methyl-2-phenyl-1H-indol-3-yl)-3-phenylpropanenitrile], the “Potency % Enhancement 300 nM” value [1] was 21.6% and the “Potency % Enhancement 1000 nM” value [1] was 80.6%.
For `Cc1ccc2c(C(c3ccccc3)C(C#N)C#N)c(-c3ccccc3)[nH]c2c1` (stereo not drawn) [ABD1133, 2-((6-Methyl-2-phenyl-1H-indol-3-yl)(phenyl)methyl)malononitrile], the “Potency % Enhancement 300 nM” value [1] was 68.7% and the “Potency % Enhancement 1000 nM” value [1] was 40.4%.
In the case of `FC(F)(F)CC(c1ccccc1)c1c(-c2ccccc2)[nH]c2ccccc12` (stereo not drawn) [ABD1137, 2-Phenyl-3-(3,3,3-trifluoro-1-phenylpropyl)-1H-indole], the “Potency % Enhancement 300 nM” value [1] is reported as 0% and the “Potency % Enhancement 1000 nM” value [1] is reported as 20.7%.
In the case of `O=C(C(c1ccccc1)c1c(-c2ccccc2)[nH]c2ccccc12)C(F)(F)F` (stereo not drawn) [ABD1139, 1,1,1-Trifluoro-3-phenyl-3-(2-phenyl-1H-indol-3-yl)propan-2-one], the “Potency % Enhancement 300 nM” value [1] is reported as 0% and the “Potency % Enhancement 1000 nM” value [1] is reported as 18.6%.
In the case of `Cc1ccc2c(C(CC(F)(F)F)c3ccccc3)c(-c3ccccc3)[nH]c2c1` (stereo not drawn) [ABD1145, 6-Methyl-2-phenyl-3-(3,3,3-trifluoro-1-phenylpropyl)-1H-indole], the “Potency % Enhancement 100 nM” value [1] is reported as 45.5% and the “Potency % Enhancement 1000 nM” value [1] is reported as 61.9%.
For `Cc1ccc2c(C(C(=O)C(F)(F)F)c3ccccc3)c(-c3ccccc3)[nH]c2c1` (stereo not drawn) [ABD1146, 1,1,1-Trifluoro-3-(6-methyl-2-phenyl-1H-indol-3-yl)-3-phenylpropan-2-one], the “Potency % Enhancement 100 nM” value [1] was 34.0% and the “Potency % Enhancement 1000 nM” value [1] was 81.0%.
With `Cc1ccc2c(C(c3cccs3)C(C#N)C#N)c(-c3ccccc3)[nH]c2c1` (stereo not drawn) [ABD1155, 2-((6-Methyl-2-phenyl-1H-indol-3-yl)(thiophen-2-yl)methyl)malononitrile] the “Potency % Enhancement 1000 nM” value [1] was 67.4%.
`Cc1ccc2c(C(CC(F)(F)F)c3cccs3)c(-c3ccccc3)[nH]c2c1` (stereo not drawn) [ABD1187, 6-Methyl-2-phenyl-3-(3,3,3-trifluoro-1-(thiophen-2-yl)propyl)-1H-indole] showed a microsomal CLint at 3 μM (in vitro; human) of 5 µL/min/mg.
For `CCc1c(C(=O)NCCc2ccc(N3CCCCC3)cc2)[nH]c2ccc(Cl)cc12` [ORG27569], the “binding of CP55940” value (CB1 receptor [2]) is given as “increase”, the “binding of radiolabelled inverse agonist SR141716A” value (CB1 receptor [2]) is given as “decrease” and the “dissociation of radiolabelled CB1 receptor agonist CP55940 from the CB1 receptor” value (“dissociation” below) (CB1 receptor [3]) is given as “slowing of the dissociation”.
For `CCc1c(C(=O)NCCc2ccc(N(C)C)cc2)[nH]c2ccc(F)cc12` [ORG27759], the “binding of CP55940” value (CB1 receptor [2]) is given as “increase”, the “binding of radiolabelled inverse agonist SR141716A” value (CB1 receptor [2]) is given as “decrease” and the “dissociation” value (CB1 receptor [3]) is given as “slowing of the dissociation”.
For `CCc1c(C(=O)NC2CCN(Cc3ccccc3)C2)[nH]c2ccc(Cl)cc12` (stereo not drawn) [ORG29647], the “binding of CP55940” value (CB1 receptor [2]) is given as “increase”, the “binding of radiolabelled inverse agonist SR141716A” value (CB1 receptor [2]) is given as “decrease” and the “dissociation” value (CB1 receptor [3]) is given as “slowing of the dissociation”.
For `Cc1ccc2c(C(C[N+](=O)[O-])c3cccs3)c(-c3ccccc3)[nH]c2c1` (stereo not drawn) [ZCZ011], the “allodynia induced by mechanical (von Frey filaments) or cold (acetone) stimulation” value (CCI model) is listed as “significantly reversed”, the half-life at 3 μM (in vitro; human) is listed as 36.7 min and the microsomal CLint at 3 μM (in vitro; human) is listed as 37.8 µL/min/mg. The half-life at 3 μM (in vitro; rat) was 8.1 min, the microsomal CLint at 3 μM (in vitro; rat) was 127 µL/min/mg and the “enhancement of the pharmacological effects of CP55,940” value ([4]; 40 mg/kg, C57BL/6J mice) was “significantly enhanced”. The “enhancement of the pharmacological effects of AEA” value ([4]; 40 mg/kg, fatty acid amide hydrolase (FAAH) knockout mice) was “significantly enhanced”, the “potency of AEA in the drug discrimination assay” value ([4]; 40 mg/kg) was “significantly increasing” and the “catalepsy, thermal antinociception, hypothermia or changes in locomotor activity” value ([4]; given alone) was “did not produce”. For the same compound, the “Potency % Enhancement 100 nM” value [1] was 56.8% and the “Potency % Enhancement 1000 nM” value [1] was 126.0%.
